Results from PMC12823633 (Cancer Chemotherapy and Pharmacology, 2026).
Like-named read-outs stand apart in the source and are kept apart here.

Legend:
CYP3A4 = conditions: 1’-hydroxymidazolam
[1] = Adverse events, DDI evaluation period; type: in vivo, human (patients with solid tumors)
CYP2C9 = CYP2C9 (Homo sapiens, UniProt P11712); assay: clinical; conditions: plasma, oral, 25 mg
[2] = midazolam 2.5 mg alone (Day −2)
[3] = midazolam 2.5 mg with TAS-115 250 mg once daily (Day 5)
[4] = After Administration of TAS-115, DDI period (N=18)
[5] = Before Administration of TAS-115 (N=18)
[6] = Entire DDI Evaluation Period (N=18)

Chain of CYP2C9 (P11712 whole entry): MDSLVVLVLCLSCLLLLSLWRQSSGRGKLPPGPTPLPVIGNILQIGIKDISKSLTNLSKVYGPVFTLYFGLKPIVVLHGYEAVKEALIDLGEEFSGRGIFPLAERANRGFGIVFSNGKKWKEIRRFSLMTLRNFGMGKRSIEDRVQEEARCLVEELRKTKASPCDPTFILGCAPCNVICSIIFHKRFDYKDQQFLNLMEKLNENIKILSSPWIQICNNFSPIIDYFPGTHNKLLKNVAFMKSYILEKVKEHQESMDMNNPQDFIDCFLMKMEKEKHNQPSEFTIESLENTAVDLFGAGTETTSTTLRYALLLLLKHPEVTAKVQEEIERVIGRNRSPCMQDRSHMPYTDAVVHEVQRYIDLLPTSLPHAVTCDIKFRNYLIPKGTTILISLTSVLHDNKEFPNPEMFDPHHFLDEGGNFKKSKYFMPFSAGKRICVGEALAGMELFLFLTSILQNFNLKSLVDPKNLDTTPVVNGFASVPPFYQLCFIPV

Compound | AUCinf, Geometric LSM (CYP3A4; [2]) [ng·h/mL] | AUClast, Geometric LSM (CYP3A4; [2]) [ng·h/mL] | Cmax, Geometric LSM (CYP3A4; [2]) [ng/mL] | AUCinf, Geometric LSM (CYP3A4; [3]) [ng·h/mL] | AUClast, Geometric LSM (CYP3A4; [3]) [ng·h/mL] | Cmax, Geometric LSM (CYP3A4; [3]) [ng/mL] | Any >=Grade 3 TRAEs Related to Losartan [1, 4] | Any TRAEs Related to Losartan [1, 4] | Any >=Grade 3 TRAEs Related to Losartan [1, 5] | Any TRAEs Related to Losartan [1, 5] | TRAE (Grade 1 hypotension) related to losartan ([1]; DDI evaluation period, losartan administered after TAS-115) | Any >=Grade 3 TRAEs Related to Losartan [1, 6] | Any TRAEs Related to Losartan [1, 6] | AUC(0-inf) (CYP2C9) [ng·h/mL] | AUC(0-t) (CYP2C9) [ng·h/mL] | Cmax (CYP2C9) [ng/mL]
OCc1ncc2n1-c1ccc(Cl)cc1C(c1ccccc1F)=NC2 [1’-Hydroxymidazolam, 1’-hydroxymidazolam] | 19.92 | 19.33 | 8.195 | 20.86 | 20.13 | 8.391 | – | – | – | – | – | – | – | – | – | –
CCCCc1nc(Cl)c(CO)n1Cc1ccc(-c2ccccc2-c2nn[nH]n2)cc1 [Losartan, losartan, reference compound] | – | – | – | – | – | – | 0 (0.0) N (%) | 1 (5.6) N (%) | 0 (0.0) N (%) | 0 (0.0) N (%) | one patient | 0 (0.0) N (%) | 1 (5.6) N (%) | 388 | 364 | 158
